Experimental data published in patent publication US12077503B2, “Substituted cyclic amides and their use as herbicides” (FMC CORPORATION, priority 2015, dated 2024).

Legend:
Type in all cases: in vivo
[1] = tested on: wheat (Triticum aestivum); experiment: Test A postemergence; conditions: postemergence, 0 to 100 scale (0 no effect, 100 complete control)
Method in brief: (§1)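 Ratings of 0 (no effect) to 100 (complete control) come from visual comparison with untreated controls roughly 10 d after treatment. Test chemicals, formulated in a non-phytotoxic solvent mixture with surfactant, were applied either as a preemergence directed soil spray on seeded soil or postemergence to one- to two-leaf plants 2 to 10 cm tall.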

[2] = tested on: barnyardgrass (Echinochloa crus-galli); experiment: Test A postemergence; conditions: postemergence, 0 to 100 scale (0 no effect, 100 complete control)
Method in brief: as §1

corn (Zea mays) = experiment: Test A postemergence; conditions: postemergence, 0 to 100 scale (0 no effect, 100 complete control)
Method in brief: as §1

[3] = tested on: Galium (catchweed bedstraw, Galium aparine); experiment: Test A postemergence; conditions: postemergence, 0 to 100 scale (0 no effect, 100 complete control)
Method in brief: as §1

Kochia (Kochia scoparia) [4] = experiment: Test A postemergence; conditions: postemergence, 0 to 100 scale (0 no effect, 100 complete control)
Method in brief: as §1

[5] = tested on: pigweed (Amaranthus retroflexus); experiment: Test A postemergence; conditions: postemergence, 0 to 100 scale (0 no effect, 100 complete control)
Method in brief: as §1

[6] = tested on: blackgrass (Alopecurus myosuroides); experiment: Test A postemergence; conditions: postemergence, 0 to 100 scale (0 no effect, 100 complete control)
Method in brief: as §1

[7] = tested on: ragweed (common ragweed, Ambrosia elatior); experiment: Test A postemergence; conditions: postemergence, 0 to 100 scale (0 no effect, 100 complete control)
Method in brief: as §1

[8] = tested on: giant foxtail (Setaria faberii); experiment: Test A postemergence; conditions: postemergence, 0 to 100 scale (0 no effect, 100 complete control)
Method in brief: as §1

[9] = tested on: ryegrass, Italian (Italian ryegrass, Lolium multiflorum); experiment: Test A postemergence; conditions: postemergence, 0 to 100 scale (0 no effect, 100 complete control)
Method in brief: as §1

[10] = tested on: ducksalad (Heteranthera limosa); experiment: Test B flooded paddy test; conditions: Flood, 250 g ai/ha; 0 to 100 scale where 0 is no effect and 100 is complete control; 13 to 15 d
Method in brief: (§2)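 Visual ratings (0 none to 100 complete control) are relative to untreated plants, taken 13–15 d after treatment in a greenhouse. Test material went straight into floodwater standing 3 cm above the soil, kept constant, on plants at the 2-leaf stage.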

[11] = tested on: barnyardgrass (Echinochloa crus-galli); experiment: Test B flooded paddy test; conditions: Flood, 250 g ai/ha; 0 to 100 scale where 0 is no effect and 100 is complete control; 13 to 15 d
Method in brief: as §2

rice (Oryra sativa) = experiment: Test B flooded paddy test; conditions: Flood, 250 g ai/ha; 0 to 100 scale where 0 is no effect and 100 is complete control; 13 to 15 d
Method in brief: as §2

[12] = tested on: sedge, umbrella (small-flower umbrella sedge, Cyperus difformis); experiment: Test B flooded paddy test; conditions: Flood, 250 g ai/ha
Method in brief: as §2

[13] = tested on: barnyardgrass (Echinochloa crus-galli); experiment: Test A preemergence
Method in brief: as §1

Kochia (Kochia scoparia) [14] = experiment: Test A preemergence
Method in brief: as §1

[15] = tested on: pigweed (Amaranthus retroflexus); experiment: Test A preemergence
[16] = tested on: ragweed (common ragweed, Ambrosia elatior); experiment: Test A preemergence
Method in brief: as §1

[17] = tested on: giant foxtail (Setaria faberii); experiment: Test A preemergence
Method in brief: as §1

[18] = tested on: ryegrass, Italian (Italian ryegrass, Lolium multiflorum); experiment: Test A preemergence
Method in brief: as §1

[19] = 125 g ai/ha, visual rating after approx. 10 d
[20] = 500 g ai/ha, visual injury, approx. 10 d
[21] = 125 g ai/ha, Preemergence, visual injury after approximately 10 d, 0 to 100 scale where 0 is no effect and 100 is complete control
[22] = 500 g ai/ha, preemergence, 0 to 100 scale, 0 = no effect, 100 = complete control
[23] = 125 g ai/ha, visual injury after approximately 10 d
[24] = 125 g ai/ha, preemergence, visual rating after approx. 10 d, 0 to 100 scale where 0 is no effect and 100 is complete control

Compound | Plant response rating, Wheat [1, 20] | Plant response rating, Barnyardgrass [2, 19] | Plant response rating, Barnyardgrass [2, 20] | Plant response rating, Corn (corn (Zea mays); [20]) | Plant response rating, Galium [3, 20] | Plant response rating, Kochia (Kochia (Kochia scoparia) [4]; [20]) | Plant response rating, Pigweed [5, 20] | Plant response rating, Blackgrass [6, 19] | Plant response rating, Blackgrass [6, 20] | Plant response rating, Ragweed [7, 20] | Plant response rating, Foxtail, Giant [8, 20] | Plant response rating, Ryegrass, Italian [9, 20] | Plant response rating, Ducksalad [10] | Plant response rating, Barnyardgrass [11] | Plant response rating, Rice (rice (Oryra sativa)) | Plant response rating, Barnyardgrass [13, 21] | Plant response rating, Barnyardgrass [13, 22] | Plant response rating, Kochia (Kochia (Kochia scoparia) [14]; [21]) | Plant response rating, Kochia (Kochia (Kochia scoparia) [14]; [22]) | Plant response rating, Pigweed [15, 22] | further results
Cc1cccc(C2CN(C)C(=O)C2C(=O)Nc2ccccc2F)c1 (stereo not drawn) [Compound 666] | 60 | 90 | 90 | 80 | 40 | 30 | 0 | 60 | 60 | 0 | 90 | 60 | 85 | 75 | 0 | 90 | 90 | 20 | 60 | 20 | Plant response rating, Wheat [1, 19]: 20; Plant response rating, Corn (corn (Zea mays); [19]): 60; Plant response rating, Galium [3, 19]: 30; Plant response rating, Kochia (Kochia (Kochia scoparia) [4]; [19]): 0; Plant response rating, Pigweed [5, 19]: 0; Plant response rating, Ragweed [7, 19]: 0; Plant response rating, Foxtail, Giant [8, 19]: 90; Plant response rating, Ryegrass, Italian [9, 19]: 20; Plant response rating, Sedge, Umbrella ([12]; 0 to 100 scale where 0 is no effect and 100 is complete control, 13 to 15 d): 0; Plant response rating, Pigweed [15, 21]: 0; Plant response rating, Ragweed [16, 21]: 0; Plant response rating, Ragweed [16, 22]: 70; Plant response rating, Foxtail, Giant [17, 21]: 100; Plant response rating, Foxtail, Giant [17, 22]: 100; Plant response rating, Ryegrass, Italian [18, 21]: 20; Plant response rating, Ryegrass, Italian [18, 22]: 50
CN1CC(c2ccc(C(C)(F)F)cc2)C(C(=O)Nc2ccccc2S(C)(=O)=O)C1=O (stereo not drawn) [Compound 692] | 50 | 70 | 80 | 50 | 60 | 60 | 50 | 50 | 60 | 30 | 80 | 60 | 20 | 0 | 0 | 70 | 90 | 70 | 80 | 90 | Plant response rating, Wheat [1, 23]: 0; Plant response rating, Corn (corn (Zea mays); [23]): 0; Plant response rating, Galium [3, 23]: 0; Plant response rating, Kochia (Kochia (Kochia scoparia) [4]; [23]): 40; Plant response rating, Pigweed [5, 23]: 40; Plant response rating, Ragweed [7, 23]: 0; Plant response rating, Foxtail, Giant [8, 23]: 70; Plant response rating, Ryegrass, Italian [9, 23]: 50; Sedge, Umbrella plant response rating ([12]; scale of 0 to 100 where 0 is no effect and 100 is complete control): 0; Plant response rating, Pigweed [15, 24]: 80; Plant response rating, Ragweed [16, 24]: 50; Plant response rating, Ragweed [16, 22]: 70; Plant response rating, Foxtail, Giant [17, 21]: 80; Plant response rating, Foxtail, Giant [17, 22]: 90; Plant response rating, Ryegrass, Italian [18, 24]: 20; Plant response rating, Ryegrass, Italian [18, 22]: 60
